# Patent US7547804B2, “Compounds, compositions, and methods employing same” (Myriad Genetics, Inc., priority 2002, dated 2009)
# System: LNCaP cell lines
# Experiment: WST-1 Cell Proliferation and Viability Assay
# Assay type: cell-based
# Conditions: Homo sapiens; LNCaP cells, compound incubation 18-72 hours
# In short: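 LNCaP cells (5000/well, phenol-red-free RPMI-1640 with 10% FCS) were plated overnight, then exposed to compounds in 0.1% DMSO final for 18-72 hours at 37 °C. Viability was read by WST-1 conversion to formazan after 3 h further incubation, measured at A490-A650.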
row,EC50,SMILES
1,2 µM,Cc1cc(C)c(OCCc2ccccc2C(F)(F)F)c(NC(=O)c2cc(Cl)ccc2O)c1 [Compound 131]
2,9 µM,COc1ccccc1CCOc1cccc(NC(=O)c2cc(-c3ccc(Cl)c(Cl)c3)ccc2O)c1 [Compound 341]
3,2 µM,Cc1ccc(COc2ccc(Cl)cc2NC(=O)c2cc(Cl)ccc2O)cc1 [Compound 306]
4,37 µM,CC(C)c1cc(C(=O)Nc2cccc(OCCc3ccccc3)c2)c(O)c(C(C)C)c1 [Compound 200]
5,17.4 µM,CN1CCN(c2ccc(C(F)(F)F)cc2NC(=O)c2cc(Cl)ccc2O)CC1 [Compound 309]
6,2.1 µM,O=C(Nc1cc(C(F)(F)F)ccc1OCc1cccc(C(F)(F)F)c1)c1cc(Cl)ccc1O [Compound 327]
7,4 µM,O=C(Nc1cccc(Cl)c1OCCc1ccccc1)c1cc(Cl)ccc1O [Compound 154]
8,2 µM,O=C(Nc1cc(Cl)ccc1OCC(c1ccccc1)c1ccccc1)c1cc(Cl)ccc1O [Compound 117]

# Same assay, conditions: Homo sapiens; LNCaP cells; flagged "Estimated": based on actual data at different concentrations
row,EC50,SMILES
1,30 µM,COc1cccc(-c2cccc(CNC(=O)c3cc(Cl)ccc3O)c2)c1 [Compound 317]
